# Assay results reported in patent US7326680B1, “Uterine contraction inhibitors” (Shionogi & Co., Ltd., priority 1999, dated 2008).
# Bridge positions count the residues as written; N and C are the ends. Ends that are not written are not given here.
# Assays:
# uterine strips = test: Stimulation of contraction of uterine strips from rats not treated with estrogen; assay type: cell-based, rat; conditions: 1 nM oxytocin, 1 μM PGF2α or 10 nM bradykinin
# Protocol: (§1) In another experiment, rats without injection of 17β-estradiol were used. The effect of 100 nM AM on uterine contraction induced by 10 nM bradykinin, 1 nM oxytocin, or 1 μM PGF2α was tested in the presence or absence of 1 μM AM[22-52] or 1 μM CGRP[8-37].
# [1] = system: spontaneous myometrial contraction of rat uterine strips; test: Spontaneous contraction of isolated uterine strips from 17β-estradiol-treated female rats (isotonic transducer); assay type: cell-based; conditions: for effect on the contraction inhibitory effect of 1 to 100 nM AM (spontaneous contraction): 1 μM preliminary addition; for effect of the antagonist per se on spontaneous contraction: 1 μM, preliminary addition (15 min preincubation)
# Protocol: 1 μg of 17β-estradiol in 0.2 ml of 30% ethanol was subcutaneously injected to 10 to 12 week old female rats.
# On the following day, the rats were sacrificed by hammering their heads. Thereafter, the rats were decapitated, followed by exsanguination. The uteri were isolated from the rats. Each isolated uterus was cut into four fragments a to d (FIG. 1(A)). Portions of each strip to which blood vessels were attached were cut off, thereby obtaining uterine strips (FIG. 1(B)).
# The effect of AM on the rat uterus was examined by measuring contractions of the uterine strips using an isotonic transducer TD-112S (manufactured by Nippon Kohden Corporation) where the tension was 1 g.
# While the uterine strip was immersed in 30 ml of a modified Krebs-Ringer bicarbonate (KRB) solution with glucose) (hereinafter simply referred to as “modified KRB solution”), the uterine strip was attached to the isotonic transducer. The composition of the modified KRB solution is as follows: 122 mM NaCl, 26 mM NaHCO3, 5 mM KCl, 1 mM MgSO4.7H2O, 0.03 mM EDTA-2Na, 2.4 mM CaCl2, and 11 mM glucose; pH 7.4).
# (§2) Myometrial contraction was continuously measured. After spontaneous rhythm of the uterine muscle was confirmed to be constant, 30 μl of 10^−4 M AM (experimental sample) or distilled water (control sample) was added to the respective modified KRB solution with glucose, where the concentration of AM was 100 nM. 30 minutes after the addition of AM or distilled water, 300 μl of 4.5 M KCl was added to make a KCl concentration of 45 mM.
# In a manner similar to that of Example 1, uterine strips were prepared, and attached to an isotonic transducer in a modified KRB solution. Myometrial contraction was continuously measured. After it was confirmed that the spontaneous rhythm of uterine muscle became constant, 30 μl of 1×10^−6, 2×10^−6, 7×10^−6, 2×10^−5, or 7×10^−5 M AM (experimental samples), or distilled water (control sample) was added to the modified KRB solution at time 0 min (initial addition), 5 min later, 12 min later, 22 min later, and 32 min later, where AM concentrations were 1, 3, 10, 30, and 100 nM, respectively. Thereafter, after 45 minutes from the initial addition of AM or distilled water, 300 μl of 4.5 M KCl was added to the solution to be a KCl concentration of 45 mM.
# 8 to 12 weeks old female rats were used to prepare uterine strips in a manner similar to that of Example 1.
# Thereafter, the uterine strip was placed in a tissue chamber filled with 30 ml of a modified KRB solution with aeration of 95% O2/5% CO2 at 37° C. to measure contraction of the uterine strip in a manner similar to that of Example 1. After 40 minutes of equilibrium, the uterine strip was preincubated for 15 minutes in the presence or absence of 1 μM AM[22-52] or 1 μM CGRP[8-37]. Thereafter, AM was added to the modified KRB solution in the tissue chamber to gradually increase the AM concentration from 1 nM to 100 nM, exposing the uterine strip to AM.
# [2] = system: bradykinin-induced contraction of rat uterine strips; test: Bradykinin-induced contraction of isolated rat uterine strips; assay type: cell-based; conditions: 10 nM bradykinin; for effect on the inhibitory effect of AM on bradykinin-induced contraction: preliminary addition of 1 μM antagonist
# Protocol: In a manner similar to that of Example 1, uterine strips were prepared and attached to an isotonic transducer in a modified KRB solution. At the time when 10 nM bradykinin (Peptide Institute, Inc.) was added to the modified KRB solution, myometrial contraction was continuously measured. 20 minutes after the addition of bradykinin, 100 nM AM or distilled water was further added.
# as §1
# (§3) In all measurements, the uterine strips were eventually contracted due to 45 mM KCl depolarization to confirm responses of the myometrium. The results are shown in FIGS. 6(a) to 6(f) and FIGS. 7(a) to 7(e).
# [3] = system: oxytocin-induced contraction of rat uterine strips; test: Oxytocin-induced contraction of isolated rat uterine strips; assay type: cell-based; conditions: 100 nM AM, 1 nM oxytocin, rats not treated with estrogen
# Protocol: as §1, with “CGRP[8-37]. In all measurements, the uterine strips were eventually contracted due to 45 mM KCl depolarization to confirm responses of the myometrium. The results are shown in FIGS. 6(a) to 6(f) and FIGS. 7(a) to 7(e).” for “CGRP[8-37].”
# [4] = system: galanin-induced tonic contraction of the uterus; conditions: Reference 7; cited from earlier work
# [5] = system: PGF2α-induced contraction of rat uterine strips; test: PGF2α-induced contraction of isolated rat uterine strips; assay type: cell-based; conditions: 100 nM AM, 1 μM PGF2α, rats not treated with estrogen
# Protocol: as §1, with “CGRP[8-37]. In all measurements, the uterine strips were eventually contracted due to 45 mM KCl depolarization to confirm responses of the myometrium. The results are shown in FIGS. 6(a) to 6(f) and FIGS. 7(a) to 7(e).” for “CGRP[8-37].”
# [6] = system: muscle contraction due to activation of voltage-dependent Ca channels (45 mM KCl); test: 45 mM KCl depolarization-induced contraction of rat uterine strips; assay type: cell-based; conditions: 100 nM AM, KCl added 30 min after AM
# Protocol: as §2, §3
compound,measurement,setting,value
prostaglandin F2α [PGF2α],stimulation of uterine contraction,uterine strips,significantly stimulated contraction
"AM[22-52]: an antagonist for an AM receptor (TVQKLAHQIYQFTDKDKDNVAPRSKISPQGY; ends and bridges not checked; UniProt P35318 116-146, looked up, fragment) [reference compound]",effect on the contraction inhibitory effect of 1 to 100 nM AM (spontaneous contraction),[1],substantially completely prevents
same,effect of the antagonist per se on spontaneous contraction,[1],had no effect
same,effect on the inhibitory effect of AM on bradykinin-induced contraction,[2]; 100 nM AM,eliminated
YRQSMNQGSRSTGCRFGTCTMQKLAHQIYQFTDKDKDGMAPRNKISPQGY-NH2 (disulfide 14-19; C-terminus assumed) [AM],effect on spontaneous myometrial contraction,"[1]; 100 nM AM, Example 1, FIGS. 2(c), 2(d)",significantly inhibited
same,"effect on spontaneous myometrial contraction, cumulative concentrations","[1]; 1, 3, 10, 30, 100 nM AM, Example 2, FIGS. 3(a), 3(b)",inhibited by the addition of AM in a concentration-dependent manner
same,IC50,"[1]; AM 1 to 100 nM, estradiol-treated rats, Example 4, read-out: IC50 of inhibition of spontaneous contraction",0.023 µM
same,reversibility of the inhibitory effect on spontaneous contraction,[1]; washing out and exchanging the modified KRB solution after 100 nM AM,could be reversed
same,effect on contraction induced by oxytocin,[3],almost no effect
same,concentration at which galanin-induced tonic contraction of the uterus was inhibited,[4],≥ 5 µM
same,effect on contraction induced by PGF2α,[5],almost no effect
same,effect on bradykinin-induced contraction,"[2]; 100 nM AM added 20 min later, estradiol-treated rats, Example 3",inhibited
same,effect on bradykinin-induced contraction,"[2]; 100 nM AM, rats not treated with estrogen, Example 4",completely blocked
same,effect on contraction caused by 45 mM KCl,[6],does not affect
CC[C@H](C)[C@@H]1NC(=O)[C@H](Cc2ccc(O)cc2)NC(=O)[C@@H](N)CSSC[C@@H](C(=O)N2CCC[C@H]2C(=O)N[C@@H](CC(C)C)C(=O)NCC(N)=O)NC(=O)[C@H](CC(N)=O)NC(=O)[C@H](CCC(N)=O)NC1=O [oxytocin],stimulation of uterine contraction,uterine strips,significantly stimulated contraction
"CGRP[8-37]: an antagonist for a CGRP receptor (VTHRLAGLLSRSGGVVKNNFVPTNVGSKAF; ends and bridges not checked; UniProt P06881 90-119, looked up, fragment) [reference compound]",effect on the contraction inhibitory effect of 1 to 100 nM AM (spontaneous contraction),[1],substantially completely prevents
same,effect of the antagonist per se on spontaneous contraction,[1],had no effect
same,effect on the action of AM on galanin-induced tonic contraction,[4],eliminated
same,effect on the inhibitory effect of AM on bradykinin-induced contraction,[2]; 100 nM AM,eliminated
